Experimental data taken from article PMC6135860 (Neuropsychopharmacology, 2018).
Like-named read-outs stand apart in the source and are kept apart here.

Assays:
[1] = test system: brain cAMP, humanized PDE4D mice; test: Brain cAMP ELISA after oral dosing; format: in vivo, mouse
Description: (§1) On the day of assay, frozen brain samples were analyzed using the cAMP complete ELISA kit (Enzo Life Sciences, Farmingdale, NY) according to the assay protocol.
(§2) Concentrations of cAMP in mouse brain samples were measured using an enzyme-linked immunosorbent assay (ELISA). The mice were treated with various doses of BPN-14770 or vehicle. 1 h after dosing, mice were killed by rapid decapitation, and brains were immediately were dissected on ice, flash frozen in liquid nitrogen, and stored at -80 ̊C. On the day of assay, brain samples (one hemisphere) were ground to a fine powder under liquid nitrogen in a stainless steel mortar, followed by addition of 10 volumes of 0.1 M HCl. Tissue homogenates were then centrifuged at 800ˣg for 15 min. Supernatants were collected for immediate assay or stored frozen for assay later using the cAMP complete ELISA kit (Enzo Life Sciences, Farmingdale, NY) according to the assay protocol ^66.

[2] = test system: brain cAMP, wild-type mice; test: Brain cAMP ELISA after oral dosing; format: in vivo, mouse
Description: as §1, §2

[3] = test system: humanized PDE4D mice
[4] = biological target: T1, humanized mouse PDE4D7 dimer S129D(PKA), Y271F(UCR2) (Mus musculus, UniProt Q01063, S129D/Y271F); test: biochemical; format: biochemical
T1 construct: hexahistidine; Proteos Inc; host or cells: Baculovirus-infected Sf9 insect cells
T1 sequence (Q01063 1-747 S129D/Y271F): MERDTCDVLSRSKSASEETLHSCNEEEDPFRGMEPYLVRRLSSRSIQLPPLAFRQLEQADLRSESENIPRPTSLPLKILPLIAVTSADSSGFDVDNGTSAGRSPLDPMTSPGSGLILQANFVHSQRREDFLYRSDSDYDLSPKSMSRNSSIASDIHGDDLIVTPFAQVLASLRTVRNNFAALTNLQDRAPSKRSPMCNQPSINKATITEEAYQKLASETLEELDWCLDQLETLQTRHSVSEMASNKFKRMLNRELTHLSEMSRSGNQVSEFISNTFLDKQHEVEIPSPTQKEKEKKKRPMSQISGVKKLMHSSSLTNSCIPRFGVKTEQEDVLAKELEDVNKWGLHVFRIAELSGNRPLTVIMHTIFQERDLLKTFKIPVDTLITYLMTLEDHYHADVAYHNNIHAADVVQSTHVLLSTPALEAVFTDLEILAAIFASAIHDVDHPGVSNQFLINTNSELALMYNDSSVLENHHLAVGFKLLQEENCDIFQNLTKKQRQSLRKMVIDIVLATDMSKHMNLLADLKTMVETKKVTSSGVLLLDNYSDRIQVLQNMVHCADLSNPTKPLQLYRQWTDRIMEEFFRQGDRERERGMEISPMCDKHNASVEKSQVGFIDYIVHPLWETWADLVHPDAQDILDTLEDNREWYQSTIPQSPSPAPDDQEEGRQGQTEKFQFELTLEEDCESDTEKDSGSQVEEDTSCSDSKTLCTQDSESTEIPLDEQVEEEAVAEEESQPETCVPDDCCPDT
Description: Kinetic assay of cAMP hydrolysis by purified PDE4 enzymes is measured by coupling the formation of the PDE4 reaction product 5′-adenosine monophosphate (AMP) to the oxidation of reduced nicotinamide adenine dinucleotide (NADH). This is accomplished with three coupling enzymes (yeast myokinase, pyruvate kinase, and lactate dehydrogenase), and allows fluorescent determination of reaction rates [19]. To measure inhibition of PDE4 enzymes by test compounds, data were percent normalized relative to controls and are presented as percent inhibition.
Kinetic assay of cAMP hydrolysis by purified PDE4 enzymes is measured by coupling the formation of the PDE4 reaction product 5′-adenosine monophosphate (AMP) to the oxidation of reduced nicotinamide adenine dinucleotide (NADH). This is accomplished with three coupling enzymes (yeast myokinase, pyruvate kinase, and lactate dehydrogenase), and allows fluorescent determination of reaction rates.^19 Assays were performed in 96-well plates in a total volume of 200 μl/well. Compounds were dissolved in dimethylsulfoxide (DMSO) and added to plates in a volume of 10 μl followed by addition of 165 μl of assay mix. Plates were pre-incubated at 25 °C for 10 min. The enzyme reaction was initiated by the addition of 25 μl of cAMP followed by thorough mixing. […] Initial rates (slopes) were determined from linear portions of the progress curves. […]

[5] = test system: ICR mice; test: Anxiolytic-like effect models (marble burying, elevated-plus maze); format: in vivo, mouse; details: Supplementary Figure S4
Excerpt: Data are presented as mean ± S.E.M. (n = 10 male mice); * p < 0.05 and *** p < 0.001 (Student’s t-test) versus vehicle-treated group.

[6] = test system: humanized PDE4D mice; test: Novel object recognition, 24 h inter-trial interval; format: in vivo, mouse
Description: The novel object recognition test was performed as described elsewhere [32, 33]. Briefly, the task procedure consists of three phases: habituation phase on day 1 for 10 min, training (T1) phase on day 2 for 5 min, and testing (T2) phase on day 3 for 5 min. The duration each animal spent exploring the objects was recorded. Time spent exploring the identical objects in T1 was recorded as a1 and a2; time spent exploring the familiar and the novel objects in T2 was recorded as “a” and “b”, respectively. The following variables were calculated: e1 = a1 + a2, e2 = a + b, the relative discrimination index d2 = (b–a)/e2.
Novel object recognition. Mice were handled for 3-5 min for 5 days in a row. The novel object recognition test was performed in a Plexiglas open field box (L30 cm, W50 cm, H40 cm) as described elsewhere^64,65. Briefly, the task procedure consists of three phases: habituation, training (T1), and testing (T2). In the habituation phase (day 1), each animal is allowed to freely explore the apparatus for 10 min; then the animal is returned to its home cage. During the training phase (day 2), a single animal is placed in the center of the open field containing two identical objects located on the diagonal of the field, and allowed to explore for 5 min. After a retention interval after T1 of 24 h (long-term recall) or 1 h (scopolamine-impairment model), the animal was subjected to the T2 testing phase for 5 min, during which one familiar object and one novel object were presented. The arena and objects were thoroughly wiped with 70% ethanol after each trial to avoid the presence of any olfactory cues. The animals were considered to be exploring the object when directing their nose to the object at a distance of no more than 2 cm and/or touching or sniffing the object. The duration each animal spent exploring the objects was recorded. Time spent exploring the identical objects in T1 was recorded as a1 and a2; time spent exploring the familiar and the novel objects in T2 was recorded as ‘a’ and ‘b’, respectively. The following variables were calculated: e1 = a1 + a2, e2 = a + b, the relative discrimination index d2 = (b – a)/e2.

[7] = biological target: PDE4 binding sites in wild-type mouse brain membranes; test: [3H]-rolipram radioligand binding to brain membranes; details: wild-type
Description: Mice were killed by decapitation, and the brains were immediately dissected on ice and homogenized in binding buffer using a Polytron homogenizer (Brinkman Instruments, Westbury, NY). The membrane fraction of the homogenate was obtained by centrifugation at 15,000 × g for 15 min, and resuspension of the pellet in the binding buffer.
Mice were killed by decapitation, and the brains were immediately dissected on ice and homogenized in binding buffer (50 mM Tris-HCl, 5 mM MgCl2, pH 7.5) using a Polytron homogenizer (Brinkman Instruments, Westbury, NY). The membrane fraction of the homogenate was obtained by centrifugation at 15,000 g for 15 min, and resuspension of the pellet in the binding buffer^29.
At the end of the incubation, reactions were stopped by adding 5 ml of the ice-cold binding buffer and rapid vacuum filtration through glass fiber filters that had been soaked in 0.3% polyethyleneimine. The filters were then washed twice with 5 ml of the ice-cold binding buffer, and discs of filter paper were collected for measurement of radioactivity by liquid scintillation counting.

Question: Which “increase in brain cAMP” value ([1]; humanized PDE4D mice, 0.3 mg/kg PO) does the source give for `O=C(O)Cc1ccc(Cc2cc(-c3cccc(Cl)c3)nc(C(F)(F)F)c2)cc1` [BPN14770] here?
Answer: almost three-fold

Question: And the “minimum effective dose (MED) for increase in brain cAMP” value ([1]; humanized mice, 1 h after oral dose)?
Answer: 0.1 mg/kg PO

Question: What about the “effect on brain cAMP” value ([2]; 0.3 mg/kg PO) of the same molecule?
Answer: ineffective

Question: And the “minimum effective dose (MED) for increase in brain cAMP” value ([2]; 1 h after oral dose)?
Answer: 1 mg/kg PO

Question: What about the “projected tolerability in non-rodent species, plasma” value ([3]; from surrogate measure of emesis) of the same molecule?
Answer: greater than 1300 ng/ml

Question: And the “window in exposure between beneficial doses and plasma exposure predicted to cause emesis” value ([3]; humanized PDE4D mice)?
Answer: 40- to 100 fold

Question: What about the “NOAEL (no observed adverse effect level), ketamine/xylazine test” value ([3]; mouse, in vivo) of the same molecule?
Answer: 1 mg/kg PO

Question: And the “increase in potency by mutation of mouse UCR2 tyrosine 271 to phenylalanine” value ([4]; Y271F versus wild-type mouse PDE4D7)?
Answer: 46 fold

Question: What about the IC50 ([4]; mouse PDE4D7 dimer, S129D, Y271F (humanized UCR2)) of the same molecule?
Answer: 2.9 ± 0.3 nM

Question: What about the anxiolytic-like effect [5] of the same molecule?
Answer: ineffective

Question: What about the “dose range for effect on neurochemical and cognitive biomarkers” value ([6]; humanized PDE4D mice) of the same molecule?
Answer: 0.01–0.03 mg/kg PO

Question: What about the “greater potency for improving memory in humanized vs wild-type mice” value ([6]; memory tests overall) of the same molecule?
Answer: 100 fold

Question: What about the Ki ([7]; inhibition of 2 nM [3H]-rolipram binding, read-out: One-site Ki) of the same molecule?
Answer: 124 ± 14.1 nM

Question: What about the Ki ([7]; inhibition of [3H]-rolipram binding, read-out: Two-site Ki1) of the same molecule?
Answer: 79.7 ± 17.1 nM

Question: And the Ki ([7]; inhibition of [3H]-rolipram binding, read-out: Two-site Ki2)?
Answer: 622 ± 110 nM
